Measurements as given in the supplement of paper PMC11061612.

Legend:
Test in all cases: Bliss excess, mean over the matrix (fraction); higher = more synergy
[1] = tested on: SK-MM-2 (Plasma Cell Myeloma)
How it was run: (§1)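 Cell lines in DMEM/F12 or RPMI with 10% FBS were plated in 1536-well plates, held 24 hours at 37°C, 5% CO2, then given two-drug dose matrices for 72 hours (DMSO typically 0.2%). Viability was read by CellTiter-Glo 2.0 luminescence and scaled as inhibition from 0 (vehicle wells) to 1 (blank wells). Combination Emax is the second-highest inhibition in the matrix; Bliss excess is observed combination effect minus expected EA + EB − EA·EB, EA and EB being single-agent effects.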

[2] = tested on: Calu-6 (Non-Small Cell Lung Carcinoma)
How it was run: as §1

[3] = tested on: SJRH30 (Rhabdomyosarcoma)
How it was run: as §1

[4] = tested on: NCI-H196 (Small Cell Lung Carcinoma)
How it was run: as §1

[5] = tested on: NCI-H1623 (Lung Adenocarcinoma)
How it was run: as §1

[6] = tested on: CHL-1 (Melanoma)
How it was run: as §1

[7] = tested on: KYM-1 (Rhabdomyosarcoma)
How it was run: as §1

[8] = tested on: JHH-1 (Hepatocellular Carcinoma)
How it was run: as §1

[9] = tested on: HuO-3N1 (Osteosarcoma)
How it was run: as §1

[10] = tested on: CML-T1 (Chronic Myelogenous Leukemia)
How it was run: as §1

[11] = tested on: FLO-1 (Esophageal Adenocarcinoma)
How it was run: as §1

[12] = tested on: RPMI-8866 (Chronic Myelogenous Leukemia)
How it was run: as §1

[13] = tested on: COLO-684 (Endometrial Carcinoma)
How it was run: as §1

[14] = tested on: RL95-2 (Endometrial Carcinoma)
How it was run: as §1

[15] = tested on: HSC-3 (Oral Cavity Carcinoma)
How it was run: as §1

[16] = tested on: KYSE-70 (Esophageal Squamous Cell Carcinoma)
How it was run: as §1

[17] = tested on: NCI-H1155 (Non-Small Cell Lung Carcinoma)
How it was run: as §1

[18] = tested on: NCI-H1755 (Lung Adenocarcinoma)
How it was run: as §1

[19] = tested on: OV-90 (Ovarian Carcinoma)
How it was run: as §1

[20] = tested on: EB-3 (Burkitt's Lymphoma)
How it was run: as §1

| Compound | Bliss excess [1] | Bliss excess [2] | Bliss excess [3] | Bliss excess [4] | Bliss excess [5] | Bliss excess [6] | Bliss excess [7] | Bliss excess [8] | Bliss excess [9] | Bliss excess [10] | Bliss excess [11] | Bliss excess [12] | Bliss excess [13] | Bliss excess [14] | Bliss excess [15] | Bliss excess [16] | Bliss excess [17] | Bliss excess [18] | Bliss excess [19] | Bliss excess [20] |
| --- | --- | --- | --- | --- | --- | --- | --- | --- | --- | --- | --- | --- | --- | --- | --- | --- | --- | --- | --- | --- |
| COc1nnc2ccc(N3CCC(c4ccc(OCCN5CCN(C)C(=O)[C@H]5C)cc4)CC3)nn12 [AZD5153] + Cc1c2c(nn1C)CSCc1cc(n(C)n1)CSc1cc(c3ccccc3c1)OCCCc1c(C(=O)O)n(C)c3c-2c(Cl)ccc13 [AZD5991] (first compound max 1 µM, 7x7, partner max 1 µM) | -0.0156 | -0.131 | 0.0045 | 0.0074 | 0.049 | 0.0613 | 0.0335 | 0.106 | -0.0118 | 0.0065 | -0.0352 | -0.0361 | -0.0106 | -0.0414 | -0.0069 | -0.0652 | -0.0091 | -0.0785 | -0.0389 | -0.0048 |
| COc1nnc2ccc(N3CCC(c4ccc(OCCN5CCN(C)C(=O)[C@H]5C)cc4)CC3)nn12 [AZD5153] + C=CCn1c(=O)c2cnc(Nc3ccc(N4CCN(C)CC4)cc3)nc2n1-c1cccc(C(C)(C)O)n1 [AZD1775] (first compound max 1 µM, partner max 1 µM) | -0.0484 | -0.0511 | -0.019 | -0.0574 | -0.0101 | -0.0434 | -0.0249 | 0.0173 | -0.0584 | -0.116 | 0.0001 | -0.0864 | -0.0852 | 0.0344 | -0.0396 | -0.0519 | 0.0523 | -0.0088 | -0.0367 | -0.114 |
| CN(CCO)CC[C@H](CSc1ccccc1)Nc1ccc(S(=O)(=O)NC(=O)c2ccc(N3CCC([C@@H](O)c4ccccc4-c4ccc(Cl)cc4)CC3)cc2)cc1S(=O)(=O)C(F)(F)F [AZD4320] + Cn1cnc2c(F)c(Nc3ccc(Br)cc3Cl)c(C(=O)NOCCO)cc21 [Selumetinib] (first compound max 1 µM, 7x7, partner max 3 µM) | 0.0514 | -0.0019 | 0.0587 | -0.0339 | 0.162 | -0.0218 | 0.0283 | 0.0527 | -0.0194 | -0.0155 | 0.0109 | 0.0349 | 0.0023 | 0.137 | 0.0228 | 0.0554 | 0.0385 | 0.0081 | 0.0304 | -0.036 |
| NC1(C(=O)N[C@@H](CCO)c2ccc(Cl)cc2)CCN(c2ncnc3[nH]ccc23)CC1 [Capivasertib] + CCN(CCO)CCCOc1ccc2c(Nc3cc(CC(=O)Nc4cccc(F)c4)[nH]n3)ncnc2c1 [AZD2811] (first compound max 10 µM, 7x7, partner max 1 µM) | -0.0412 | -0.0009 | 0.0224 | -0.0276 | 0.0004 | -0.0092 | -0.0457 | -0.0517 | -0.0379 | -0.0597 | -0.0049 | 0.0469 | 0.0272 | -0.0051 | -0.0374 | -0.0902 | -0.0152 | -0.0289 | -0.0272 | 0.0152 |
| Cc1nc(Nc2ncc(C(=O)Nc3c(C)cccc3Cl)s2)cc(N2CCN(CCO)CC2)n1 [Dasatinib] + CC(=O)Nc1cccc(-n2c(=O)n(C3CC3)c(=O)c3c(Nc4ccc(I)cc4F)n(C)c(=O)c(C)c32)c1 [Trametinib] (first compound max 2 µM, 7x7, partner max 1 µM) | -0.0157 | 0.179 | -0.0973 | -0.0634 | -0.0775 | 0.0137 | -0.0178 | 0.0492 | -0.159 | -0.0296 | 0.122 | 0.073 | -0.0482 | -0.186 | -0.0444 | -0.0729 | -0.0132 | -0.0052 | -0.0067 | -0.0156 |
| COc1cccc(OCCCN)c1-c1cc(Nc2cnc(C#N)cn2)n[nH]1 [Prexasertib] + CN(C)CCCOc1ccc(-c2ccc3ncc4c(c3c2)n(C2CCOCC2)c(=O)n4C)cn1 [AZD0156] (first compound max 1 µM, 7x7, partner max 1 µM) | -0.0392 | -0.0507 | -0.0242 | -0.0547 | -0.0206 | 0.0059 | 0.0147 | 0.0785 | 0.0092 | -0.0328 | -0.056 | -0.009 | -0.0172 | -0.0364 | -0.0322 | -0.0233 | -0.0753 | -0.011 | -0.035 | 0.0498 |
| Cc1cc2ncnn2cc1Nc1ncc2c(n1)n(C1CCOCC1)c(=O)n2C [AZD7648] + CN(C)CCCOc1ccc(-c2ccc3ncc4c(c3c2)n(C2CCOCC2)c(=O)n4C)cn1 [AZD0156] (first compound max 10 µM, 7x7, partner max 1 µM) | -0.0552 | 0.0024 | 0.0105 | -0.0173 | -0.0209 | 0.0169 | 0.0278 | 0.0063 | -0.0416 | -0.0092 | -0.0665 | -0.0363 | -0.0324 | 0.0161 | 0.0174 | 0.0213 | 0.0397 | 0.0118 | -0.0374 | -0.0867 |
| CN(CCO)CC[C@H](CSc1ccccc1)Nc1ccc(S(=O)(=O)NC(=O)c2ccc(N3CCC([C@@H](O)c4ccccc4-c4ccc(Cl)cc4)CC3)cc2)cc1S(=O)(=O)C(F)(F)F [AZD4320] + C1CN(CCC1(C(=O)N[C@@H](CCO)C2=CC=C(C=C2)Cl)N)C3=NC=NC4=C3C=CN4 [Capivasertib] (first compound max 1 µM, 7x7, partner max 3 µM) | -0.0077 | 0.0004 | 0.0085 | -0.0297 | -0.002 | -0.028 | -0.021 | -0.149 | -0.0109 | 0.0023 | -0.039 | -0.0553 | -0.0157 | -0.0192 | -0.037 | -0.0273 | 0.0147 | -0.0221 | -0.0635 | -0.0462 |
| Cc1cc2ncnn2cc1Nc1ncc2c(n1)n(C1CCOCC1)c(=O)n2C [AZD7648] + C=CCn1c(=O)c2cnc(Nc3ccc(N4CCN(C)CC4)cc3)nc2n1-c1cccc(C(C)(C)O)n1 [AZD1775] (first compound max 10 µM, partner max 1 µM) | -0.0214 | -0.0282 | 0.0139 | -0.0249 | 0.0376 | 0.014 | 0.0302 | 0.001 | -0.0205 | 0.0112 | -0.023 | -0.0616 | -0.0713 | -0.0629 | -0.0488 | 0.0184 | 0.033 | 0.0084 | -0.0163 | -0.102 |
| Cc1cc2ncnn2cc1Nc1ncc2c(n1)n(C1CCOCC1)c(=O)n2C [AZD7648] + O=C(c1cc(Cc2n[nH]c(=O)c3ccccc23)ccc1F)N1CCN(C(=O)C2CC2)CC1 [Olaparib] (first compound max 10 µM, 7x7, partner max 10 µM) | -0.0204 | -0.0391 | -0.0148 | -0.0435 | -0.0486 | -0.0266 | -0.0078 | -0.0621 | -0.031 | -0.0483 | -0.0259 | 0.0298 | -0.0054 | -0.0444 | -0.0102 | -0.0528 | -0.0235 | -0.0464 | -0.0419 | -0.0401 |
| CC1(C)CCC(CN2CCN(c3ccc(C(=O)NS(=O)(=O)c4ccc(NCC5CCOCC5)c([N+](=O)[O-])c4)c(Oc4cnc5[nH]ccc5c4)c3)CC2)=C(c2ccc(Cl)cc2)C1 [Venetoclax] + C1CN(CCC1(C(=O)N[C@@H](CCO)C2=CC=C(C=C2)Cl)N)C3=NC=NC4=C3C=CN4 [Capivasertib] (first compound max 1 µM, 7x7, partner max 3 µM) | -0.0449 | -0.0558 | -0.0008 | -0.0377 | -0.0643 | -0.0266 | -0.0269 | -0.0721 | -0.0347 | -0.0342 | -0.0841 | -0.0224 | -0.0821 | -0.0102 | -0.0501 | -0.0102 | -0.0482 | -0.034 | -0.0796 | -0.0683 |
| Cn1cnc2c(F)c(Nc3ccc(Br)cc3Cl)c(C(=O)NOCCO)cc21 [Selumetinib] + CCN(CCO)CCCOc1ccc2c(Nc3cc(CC(=O)Nc4cccc(F)c4)[nH]n3)ncnc2c1 [AZD2811] (first compound max 10 µM, 7x7, partner max 1 µM) | -0.0037 | -0.0026 | -0.0008 | -0.057 | 0.0134 | -0.0579 | -0.0102 | -0.0327 | -0.106 | 0.0685 | -0.0448 | 0.0543 | -0.0211 | 0.045 | -0.0877 | 0.0047 | 0.0907 | 0.0386 | -0.0252 | -0.0415 |
| CC(=O)c1c(C)c2cnc(Nc3ccc(N4CCNCC4)cn3)nc2n(C2CCCC2)c1=O [Palbociclib] + Cc1c2c(nn1C)CSCc1cc(n(C)n1)CSc1cc(c3ccccc3c1)OCCCc1c(C(=O)O)n(C)c3c-2c(Cl)ccc13 [AZD5991] (first compound max 10 µM, 7x7, partner max 1 µM) | 0.0033 | -0.0227 | -0.0488 | -0.0784 | -0.0321 | 0.0344 | 0.0337 | -0.0111 | -0.0972 | -0.0233 | 0.0084 | -0.004 | -0.0173 | -0.0841 | -0.0811 | -0.0462 | -0.059 | -0.0188 | -0.0568 | -0.0271 |
| C[C@@H](c1ccc2nccn2c1)n1nnc2ncc(-c3cnn(C)c3)nc21 [Savolitinib] + Cc1c2c(nn1C)CSCc1cc(n(C)n1)CSc1cc(c3ccccc3c1)OCCCc1c(C(=O)O)n(C)c3c-2c(Cl)ccc13 [AZD5991] (first compound max 1 µM, 7x7, partner max 1 µM) | -0.0395 | -0.0124 | -0.0432 | -0.0675 | -0.0195 | -0.023 | -0.0309 | -0.0462 | -0.0631 | 0.0118 | -0.032 | -0.0285 | -0.0158 | -0.0676 | -0.018 | -0.0339 | -0.0188 | -0.0361 | -0.0519 | -0.076 |
